Usually viability stands for a read-out of living cells in per cent, often relative to untreated cells.

The nature of this data set: in vitro. Particulars: human, hela cells, % viability.
As for `O=C(Cc1ccc(F)cc1)NCc1nnc(-c2cccs2)o1` [CBK284640], the viability at 28.5 h, 10 µM is 82.6%. On to `Cc1ccc(-c2nnc(CNC(=O)c3cccc(F)c3F)o2)s1` [CBK284641], for which the viability at 28.5 h, 10 µM came to 91.1%. Regarding `Cc1ccc(-c2nnc(CNC(=O)c3cccc(Cl)c3)o2)s1` [CBK284646], the viability at 28.5 h, 10 µM came to 79.1%. As for `Cc1ccc(-c2nnc(CNC(=O)c3ccc(F)c(F)c3)o2)s1` [CBK284647], the figure is 90.5%; as for `COCc1ccc(CN2CCC3(CCc4ccccc4C(=O)N3)C2)o1` (stereo not shown) [CBK284651], 94.3%; as for `CC(C)C(=O)N1CCC(c2nc3ccc(F)cc3cc2N)CC1` [CBK284656], 81.5%. `OC1(Cn2cnc3ccccc32)CCN(Cc2ccc(F)cc2)CC1` [CBK284661]: the viability at 28.5 h, 10 µM was 85.7%.

Take `Cc1cnn(CCC(=O)NC(Cc2ccsc2)c2nccs2)c1` (stereo not shown) [CBK284664]: the viability at 28.5 h, 10 µM worked out at 88.4%.

For `O=C(CCc1cccnc1)NC(Cc1ccsc1)c1nccs1` (stereo not shown) [CBK284665], the viability at 28.5 h, 10 µM is 99.5%. As for `Cn1ccc(C2CCCCCN2S(=O)(=O)c2ccc(F)cc2)n1` (stereo not shown) [CBK284671], the viability at 28.5 h, 10 µM was 98.8%. As for `CCS(=O)(=O)N1CCCCCC1c1nn(C)cc1Cl` (stereo not shown) [CBK284672], the figure is 83.6%; as for `Cn1nc(C(F)(F)F)cc1C1CCCCCN1S(C)(=O)=O` (stereo not shown) [CBK284673], 101%; as for `O=C(Cn1c(C2CCOCC2)cc2cccnc21)N1CCCCCC1` [CBK284674], 105%. As for `CC1CCCCN1C(=O)Cn1c(C2CCOCC2)cc2cccnc21` (stereo not shown) [CBK284675], the figure is 97.7%; as for `CC(=O)NC(c1nccs1)C1CCN(C(=O)C(C)(C)C)CC1` (stereo not shown) [CBK284677], 88.9%; as for `CC(C)(C)C(=O)NC(c1nccs1)C1CCN(C(=O)C2CC2)CC1` (stereo not shown) [CBK284678], 88.8%.

Regarding `C1=C(CNC(Cc2cccs2)c2nccs2)COCC1` (stereo not shown) [CBK284682], the viability at 28.5 h, 10 µM was 103%. With `Cc1c(CN2CCCC(c3cc4cccnc4[nH]3)C2)cnn1C` (stereo not shown) [CBK284683], the viability at 28.5 h, 10 µM was found to be 99.7%.

For the compound `Cc1cc(C)n(CC(=O)NC(Cc2cccs2)c2nccs2)n1` (stereo not shown) [CBK284686], the viability at 28.5 h, 10 µM was found to be 85.8%. As for `c1cnc2[nH]c(C3CCOCC3)c(CN3CCSCC3)c2c1` [CBK284688], the figure is 89.5%; as for `CC(C)n1nccc1NC(=O)CCn1c(C(F)F)cc2cccnc21` [CBK284690], 99.3%; as for `Cc1csc(C(Cc2cccs2)NC(=O)CN2CCCC2=O)n1` (stereo not shown) [CBK284691], 109%. As to `Cc1cc(C)n(CCNCc2cc(-c3ccc(F)cc3)c[nH]c2=O)n1` [CBK284694], the viability at 28.5 h, 10 µM was 89.2%. Turning to `O=c1[nH]cc(-c2ccc(F)cc2)cc1CNCc1ccccc1F` [CBK284696], the viability at 28.5 h, 10 µM was 86.1%.

As to `Cc1cc(C(F)(F)F)c2c(NCc3ccoc3)n[nH]c2n1` [CBK284698], the viability at 28.5 h, 10 µM came to 82.9%. As to `COc1ccc2[nH]cc([C@@H]3CCC[C@H](NC(=O)C4CCCO4)C3)c2c1` (stereo partly shown) [CBK284699], the viability at 28.5 h, 10 µM amounted to 105%. As for `C[C@]12CN(CCc3ccccc3)C[C@H]1NC(=O)c1ccccc1C2=O` [CBK284704], the figure is 90.3%; as for `Cc1ccc(CN2C[C@H]3C(=O)Nc4ccccc4C(=O)N[C@@]3(C)C2)o1` [CBK284706], 95.7%; as for `CCOC(=O)Cn1ccc2ccnc(-c3cccc(OC)c3)c21` [CBK284707], 89.6%. In the case of `O=C(c1ccccc1F)N1CCCC(c2cc3ncccc3cn2)C1` (stereo not shown) [CBK284710], the viability at 28.5 h, 10 µM was determined as 83.3%. As for `CCCNC(=O)Cn1nc(-c2cc3c(s2)CCC3)oc1=O` [CBK284713], the viability at 28.5 h, 10 µM worked out at 95.2%. The figure for `CC(C)(C)NC(=O)Cn1nc(-c2cc3c(s2)CCC3)oc1=O` [CBK284714] is 101%; for `C[C@H]1CN2C[C@H](O)CC2CN1Cc1cccc2ccccc12` (stereo partly shown) [CBK284717] it is 92.5%. As to `CCOC(=O)C(NC(=O)CCn1ccc2ccncc21)C(C)C` (stereo not shown) [CBK284719], the viability at 28.5 h, 10 µM came out at 91.6%. For `CCCC(=O)N1CCC([C@@H]2C[C@H](C(F)F)n3nc(C)cc3N2)CC1` [CBK284724], the viability at 28.5 h, 10 µM amounted to 97.6%. As for `Cc1cc2n(n1)[C@@H](C(F)F)C[C@@H](C1CCN(C(=O)C(C)C)CC1)N2` [CBK284725], the viability at 28.5 h, 10 µM is 88%. As to `COCC(C)NCc1cc(-c2ccc(Cl)cc2)c[nH]c1=O` (stereo not shown) [CBK284726], the viability at 28.5 h, 10 µM is 79%. As for `Cc1ccn(CCNCc2cc(-c3ccc(Cl)cc3)c[nH]c2=O)n1` [CBK284727], the figure is 88.4%; as for `C[C@]12CN(Cc3ccc(F)cc3)C[C@H]1NC(=O)c1ccccc1C2=O` [CBK284728], 87.8%; as for `O=C(NC1CCN(C(=O)Cn2ccc3ccncc32)CC1)C1CC1` [CBK284731], 98.9%.

Take `O=C(Cn1ccc2ccnc(-c3cccs3)c21)NCc1ccncc1` [CBK284734]: the viability at 28.5 h, 10 µM is 86.5%.

Turning to `O=C(Cn1ccc2ccnc(-c3cccs3)c21)N1CCC(O)CC1` [CBK284736], the viability at 28.5 h, 10 µM was 93.1%. As for `CC(C)(C)NC(=O)Cn1ccc2ccnc(-c3cccs3)c21` [CBK284737], the figure is 94.1%; as for `C[C@]12CN(CC3CC=CCC3)C[C@H]1C(=O)Nc1ccccc1C(=O)N2` (stereo partly shown) [CBK284738], 96.6%; as for `O=C1N[C@]2(Cc3ccccc31)CN(Cc1ccccc1)C[C@H]2CO` [CBK284743], 92.1%. As to `CC(C)C(=O)N1CCC(c2nc3ccccn3c2NC(C)(C)C)CC1` [CBK284745], the viability at 28.5 h, 10 µM was 95%. As for `CC(CC(=O)NC1(C#Cc2nccs2)CCCCC1)n1ccnc1` (stereo not shown) [CBK284746], the viability at 28.5 h, 10 µM stood at 99.5%.

As to `O=C(c1cc(C2CC2)n[nH]1)N1CCn2cc(C(F)(F)F)nc2C1` [CBK284749], the viability at 28.5 h, 10 µM came to 81.6%. Turning to `NC1CCN(C(=O)Cn2ccc3ccnc(-c4cccs4)c32)CC1` [CBK284750], the viability at 28.5 h, 10 µM was found to be 85.7%. Take `Cc1ccc(CN2CCC(O)(Cn3ccc4ncccc43)CC2)o1` [CBK284751]: the viability at 28.5 h, 10 µM worked out at 97.7%. As for `CCC(C)NC(=O)Cn1c(C2CCOCC2)cc2cc(C)cnc21` (stereo not shown) [CBK284756], the viability at 28.5 h, 10 µM came out at 94.3%.

`CC(C)(C)Nc1c(C2CCCN(C(=O)C3CC3)C2)nc2ccccn12` (stereo not shown) [CBK284759]: the viability at 28.5 h, 10 µM came to 105%.

Turning to `Cc1[nH]c2ccccc2c1[C@H]1CC[C@@H](NC(=O)c2ccnn2C)C1` [CBK284761], the viability at 28.5 h, 10 µM came to 99.8%.

Consider `O=C1NC2(CCN(C(=O)c3ccco3)CC2)Nc2ccccc21` [CBK284762], for which the viability at 28.5 h, 10 µM stood at 104%.

In the case of `O=C(NC(Cc1ccccc1)C(O)c1nccs1)C1CC=CCC1` (stereo not shown) [CBK284763], the viability at 28.5 h, 10 µM was determined as 95.3%.

Turning to `Cc1cnc2[nH]c(C(F)(F)F)c(CN3CCN(C)CC3)c2c1` [CBK284765], the viability at 28.5 h, 10 µM was determined as 92.3%. With `Cc1cc(C)n(CCNCc2cc(-c3ccccc3)c[nH]c2=O)n1` [CBK284770], the viability at 28.5 h, 10 µM stood at 101%. In the case of `O=c1[nH]cc(-c2ccccc2)cc1CNc1cccc2ncccc12` [CBK284771], the viability at 28.5 h, 10 µM turned out to be 77.1%. Turning to `COCC(=O)NC(Cc1ccsc1)c1nc(C)c(C)s1` (stereo not shown) [CBK284773], the viability at 28.5 h, 10 µM was 100%. For the compound `Cc1nc(C(Cc2ccsc2)NC(=O)C2CCC(=O)N2)sc1C` (stereo not shown) [CBK284780], the viability at 28.5 h, 10 µM was found to be 101%. `Cc1nc(C(Cc2ccsc2)NC(=O)Cn2cccn2)sc1C` (stereo not shown) [CBK284781]: the viability at 28.5 h, 10 µM was determined as 93.9%. As for `OC1(Cn2ccc3ncccc32)CCN(CC2CC=CCC2)CC1` (stereo not shown) [CBK284782], the viability at 28.5 h, 10 µM was 93.6%. As for `C=CCNC(=O)C1(Cc2ccccc2-c2ccncc2)CCOCC1` [CBK284784], the figure is 102%; as for `O=C(NC1CC1)C1(Cc2ccccc2-c2ccncc2)CCOCC1` [CBK284785], 94.1%. The figure for `O=c1c2ccccc2nc2n1CCN(Cc1ccccc1)CC2` [CBK284790] is 90.2%; for `O=C1N[C@]2(CCc3ccccc31)CN(Cc1ccsc1)C[C@H]2CO` [CBK284793] it is 90.7%. On to `O=C1N[C@]2(CCc3ccccc31)CN(CC1CC=CCC1)C[C@H]2CO` (stereo partly shown) [CBK284794], for which the viability at 28.5 h, 10 µM amounted to 96%.

Take `O=C1N[C@]2(CCc3ccccc31)CN(Cc1ccccc1)C[C@H]2CO` [CBK284795]: the viability at 28.5 h, 10 µM was determined as 106%. In the case of `COc1ccc(C(C)NC(=O)CCn2ccc3ccncc32)cc1` (stereo not shown) [CBK284798], the viability at 28.5 h, 10 µM amounted to 92.4%. Regarding `O=C1NC2(CCCN(C(=O)c3ccco3)C2)Oc2ccccc21` (stereo not shown) [CBK284800], the viability at 28.5 h, 10 µM amounted to 99.8%.

With `Cc1cccnc1C(Cc1ccsc1)NC(=O)Cn1ccnc1` (stereo not shown) [CBK284802], the viability at 28.5 h, 10 µM was found to be 94.1%. In the case of `O=C1NC2(CCCN(C(=O)c3ccco3)C2)Nc2ccccc21` (stereo not shown) [CBK284803], the viability at 28.5 h, 10 µM came out at 104%. For `Cc1cccnc1C(Cc1ccsc1)NC(=O)CCc1ccno1` (stereo not shown) [CBK284804], the viability at 28.5 h, 10 µM was 86.7%. As to `COc1cccc(-c2nccc3ccn(CC(=O)N4CC=CCC4)c23)c1` [CBK284806], the viability at 28.5 h, 10 µM amounted to 104%. Consider `O=C(NCCn1c(C(F)(F)F)cc(=O)c2cccc(F)c21)C1CC1` [CBK284807], for which the viability at 28.5 h, 10 µM came to 85.5%. Regarding `CCOC(=O)c1cc(Cl)cnc1C1CCN(C(=O)C2CC2)CC1` [CBK284810], the viability at 28.5 h, 10 µM came out at 94.5%. For `CC(C)(C)NC(=O)c1ccc(-n2ccnc2)c(-n2cccc2)c1` [CBK284811], the viability at 28.5 h, 10 µM turned out to be 103%. As for `Cc1ccc(CNC(=O)c2ccc(-n3ccnc3)c(-n3cccc3)c2)o1` [CBK284812], the figure is 99.2%; as for `O=c1c2ccccc2nc2n1CCN(Cc1ccc(F)cc1)CC2` [CBK284814], 96.9%. The figure for `CC(C)(C)NC(=O)C1C2CCC3(CC(=O)c4ccccc4O3)C21` (stereo not shown) [CBK284821] is 81.8%; for `COc1ccccc1CN1CCC2(CCCNC2=O)CC1` [CBK284823] it is 85.2%; for `O=C1NCCCC12CCN(Cc1cccc3cccnc13)CC2` [CBK284826] it is 92.3%.

Source of the values: publication PMC12040169 (PLOS Biology, 2025).
